Assay results as given in PubChem BioAssay AID248 (DTP/NCI, 2004).
Toxic doses and inconclusive results are not listed.

Tested on: L1210 leukemia ip in BDF1 mice, survival T/C
Experiment: NCI In Vivo Anticancer Drug Screen. Data for tumor model L1210 Leukemia (intraperitoneal) in B6D2F1 (BDF1) mice
Conditions: endpoint: mean survival time, higher = longer survival
In short: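 Read-out is survival time, reported as the treated-group measurement over the vehicle-control measurement.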

[1] = dose: 50.0 mg/kg/injection, schedule: Q01DX009 (ip), vehicle: saline
[2] = dose: 100.0 mg/kg/injection, schedule: Q01DX001 (ip), vehicle: saline
[3] = dose: 200.0 mg/kg/injection, schedule: Q01DX001 (ip), vehicle: saline
[4] = dose: 400.0 mg/kg/injection, schedule: Q01DX001 (ip), vehicle: saline
[5] = dose: 400.0 mg/kg/injection, schedule: Q01DX009 (ip), vehicle: saline
[6] = dose: 50.0 mg/kg/injection, schedule: Q01DX009 (ip), vehicle: Klucel (hydroxypropylcellulose) (HPC)
[7] = dose: 100.0 mg/kg/injection, schedule: Q01DX009 (ip), vehicle: Klucel (hydroxypropylcellulose) (HPC)
[8] = dose: 200.0 mg/kg/injection, schedule: Q01DX009 (ip), vehicle: Klucel (hydroxypropylcellulose) (HPC)
[9] = dose: 200.0 mg/kg/injection, schedule: Q04DX003 (ip), vehicle: Klucel (hydroxypropylcellulose) (HPC)
[10] = dose: 100.0 mg/kg/injection, schedule: Q01DX009 (ip), vehicle: saline
[11] = dose: 200.0 mg/kg/injection, schedule: Q01DX009 (ip), vehicle: saline
[12] = dose: 100.0 mg/kg/injection, schedule: Q01DX001 (ip), vehicle: Klucel (hydroxypropylcellulose) (HPC)

CCCCCCCSc1ncnc2c1ncn2CO
T/C [1]: 104 % of control | T/C (dose: 80.0 mg/kg/injection, schedule: Q01DX009 (ip), vehicle: saline): 107 % of control | T/C [2]: 101 % of control | T/C (dose: 117.0 mg/kg/injection, schedule: Q01DX009 (ip), vehicle: other): 114 % of control | T/C (dose: 120.0 mg/kg/injection, schedule: Q01DX009 (ip), vehicle: saline): 104 % of control | T/C [3]: 95 % of control | T/C [4]: 115 % of control | T/C [5]: 164 % of control

Cc1cc(C)c(CCO)c(C)c1
T/C (dose: 25.0 mg/kg/injection, schedule: Q01DX009 (ip), vehicle: DMSO): 98 % of control | T/C (dose: 25.0 mg/kg/injection, schedule: Q04DX003 (ip), vehicle: DMSO): 93 % of control | T/C (dose: 50.0 mg/kg/injection, schedule: Q01DX009 (ip), vehicle: DMSO): 96 % of control | T/C (dose: 50.0 mg/kg/injection, schedule: Q04DX003 (ip), vehicle: DMSO): 102 % of control | T/C (dose: 100.0 mg/kg/injection, schedule: Q04DX003 (ip), vehicle: DMSO): 102 % of control

CC(=O)OC1CCC2(C)C3CCC4(C)C(CC5OC54C(C)=O)C3CC3OC32C1 (stereo not drawn)
T/C (dose: 50.0 mg/kg/injection, schedule: Q01DX001 (sc), vehicle: steriod suspending solution): 97 % of control | T/C (dose: 100.0 mg/kg/injection, schedule: Q01DX001 (sc), vehicle: steriod suspending solution): 101 % of control | T/C (dose: 200.0 mg/kg/injection, schedule: Q01DX001 (sc), vehicle: steriod suspending solution): 106 % of control | T/C (dose: 400.0 mg/kg/injection, schedule: Q01DX001 (sc), vehicle: steriod suspending solution): 113 % of control

N#Cc1ccccc1.N#Cc1ccccc1.[Cl][Pd][Cl]
T/C [6]: 95 % of control | T/C [7]: 95 % of control | T/C (dose: 100.0 mg/kg/injection, schedule: Q04DX003 (ip), vehicle: Klucel (hydroxypropylcellulose) (HPC)): 94 % of control | T/C [8]: 101 % of control | T/C [9]: 102 % of control

CC(=O)c1ccccc1OCC(O)CN1CCN(c2ccccc2Cl)CC1 (stereo not drawn)
T/C (dose: 37.5 mg/kg/injection, schedule: Q01DX009 (ip), vehicle: saline with Tween-80): 97 % of control | T/C (dose: 37.5 mg/kg/injection, schedule: Q04DX003 (ip), vehicle: saline with Tween-80): 105 % of control | T/C (dose: 75.0 mg/kg/injection, schedule: Q01DX009 (ip), vehicle: saline with Tween-80): 89 % of control | T/C (dose: 75.0 mg/kg/injection, schedule: Q04DX003 (ip), vehicle: saline with Tween-80): 108 % of control | T/C (dose: 150.0 mg/kg/injection, schedule: Q01DX009 (ip), vehicle: saline with Tween-80): 93 % of control | T/C (dose: 150.0 mg/kg/injection, schedule: Q04DX003 (ip), vehicle: saline with Tween-80): 94 % of control

CC[N+]12CC=C3COC(=O)C(C)(O)C(C)(O)C(C)C(=O)OC(CC1)C32 (stereo not drawn)
T/C [1]: 92 % of control | T/C [10]: 97 % of control | T/C [11]: 92 % of control

CC(C)CCS(=O)(=O)O
T/C (dose: 50.0 mg/kg/injection, schedule: Q01DX001 (ip), vehicle: saline): 104 % of control | T/C [2]: 104 % of control | T/C [3]: 98 % of control | T/C [4]: 102 % of control

OCCOc1c(Cl)c(C(Cl)(Cl)Cl)nc2ccccc12
T/C (dose: 25.0 mg/kg/injection, schedule: Q01DX001 (ip), vehicle: Klucel (hydroxypropylcellulose) (HPC)): 103 % of control | T/C (dose: 50.0 mg/kg/injection, schedule: Q01DX001 (ip), vehicle: Klucel (hydroxypropylcellulose) (HPC)): 106 % of control | T/C [12]: 106 % of control

N#Cc1cc(-c2ccccc2)c[nH]c1=O
T/C (dose: 20.0 mg/kg/injection, schedule: Q01DX001 (ip), vehicle: Klucel (hydroxypropylcellulose) (HPC)): 98 % of control | T/C (dose: 40.0 mg/kg/injection, schedule: Q01DX001 (ip), vehicle: Klucel (hydroxypropylcellulose) (HPC)): 101 % of control | T/C (dose: 80.0 mg/kg/injection, schedule: Q01DX001 (ip), vehicle: Klucel (hydroxypropylcellulose) (HPC)): 103 % of control | T/C [12]: 102 % of control

O=C(Nc1ccc2ncccc2c1)Nc1ccc2ncccc2c1
T/C [6]: 90 % of control | T/C (dose: 50.0 mg/kg/injection, schedule: Q04DX003 (ip), vehicle: Klucel (hydroxypropylcellulose) (HPC)): 89 % of control | T/C [7]: 93 % of control | T/C [8]: 93 % of control | T/C [9]: 86 % of control

CCCCCCCCCCCCCCCCCCCCCCCCCC(=O)OCCCCCCCCCCCCCC
T/C [10]: 107 % of control | T/C (dose: 100.0 mg/kg/injection, schedule: Q04DX003 (ip), vehicle: saline): 109 % of control | T/C [11]: 96 % of control | T/C (dose: 200.0 mg/kg/injection, schedule: Q04DX003 (ip), vehicle: saline): 97 % of control | T/C [5]: 94 % of control | T/C (dose: 400.0 mg/kg/injection, schedule: Q04DX003 (ip), vehicle: saline): 98 % of control
